Results taken from patent publication US20250195521A1 (Revolution Medicines, Inc., priority 2020, published 2025).

Tests used:
[1] = molecular target: NRAS WT binding to BRAF RBD (Homo sapiens (Human), UniProt P01111+P62937); experiment: Ras-Raf disruption/FRET/MOA assay, NRAS WT; assay type: biochemical
How it was run: (§1)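 TR-FRET disruption assay: His6-tagged GMPPNP-loaded Ras (12.5 nM), GST-BRAF RBD (50 nM) and Cyclophilin A (25 μM) incubated with compound (10-point 3-fold series from 30 μM) 3 h at 25°C in HEPES pH 7.3 buffer with MgCl2 and NaCl. Anti-His Eu (10 nM)/anti-GST APC (50 nM) added, 1.5 h more; IC50 from FRET-ratio decrease versus DMSO.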

[2] = molecular target: KRAS G12S binding to BRAF RBD (Homo sapiens (Human), UniProt P01116+P62937, G12S); experiment: Ras-Raf disruption/FRET/MOA assay, KRAS G12S; assay type: biochemical
Description: (§2) Note—The following protocol describes a procedure for monitoring disruption of K-Ras G12C(GMP-PNP) binding to BRAF^RBD by a compound of the invention. This protocol may also be executed substituting other Ras proteins or nucleotides.
(§3) The purpose of this biochemical assay was to measure the ability of test compounds to facilitate ternary complex formation between a nucleotide-loaded K-Ras isoform and Cyclophilin A; the resulting ternary complex disrupts binding to a BRAF^RBD construct, inhibiting K-Ras signaling through a RAF effector. Data is reported as IC50 values.
(§4) Compound was present in plate wells as a 10-point 3-fold dilution series starting at a final concentration of 30 μM. After incubation at 25° C. for 3 hours, a mixture of Anti-His Eu—W1024 and anti-GST allophycocyanin was then added to assay sample wells at final concentrations of 10 nM and 50 nM, respectively, and the reaction incubated for an additional 1.5 hours. […] Compounds that facilitate disruption of a K-Ras: RAF complex were identified as those eliciting a decrease in the TR-FRET ratio relative to DMSO control wells.

[3] = molecular target: K-Ras G12C(GMP-PNP) binding to BRAF RBD (Homo sapiens (Human), UniProt P01116+P62937, G12C); experiment: Disruption of BRAF RBD interaction with K-Ras (FRET / MOA assay), K-Ras G12C; assay type: biochemical; conditions: read-out: KRAS G12C FRET IC50
How it was run: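 TR-FRET readout: after 3 h compound incubation at 25 °C, anti-His Eu and anti-GST allophycocyanin (10 and 50 nM final) added for a further 1.5 h. Dilution series was 10-point, 3-fold, top 30 μM final. Ras–cyclophilin A ternary complex formation blocks the BRAF RBD interaction; IC50 derived from reduced FRET ratio relative to DMSO.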

[4] = system: K-Ras G12C (NCI-H358 cells); experiment: Potency assay: pERK in NCI-H358 cells; assay type: cell-based, human; conditions: Homo sapiens; NCI-H358 cells, 4 hours; read-out: pERK EC50 (H358 KRAS G12C)
How it was run: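 Cells plated the day before were exposed for 4 h at 37° C, 5% CO2 to a 10-point, 3-fold DMSO dilution series (10 mM top stock), in duplicate. Phospho-ERK was read by AlphaLISA SureFire Ultra or by In-Cell Western with DRAQ5 DNA stain, and IC50 came from a 4-parameter sigmoidal fit.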

[5] = molecular target: KRAS Q61H binding to BRAF RBD (Homo sapiens (Human), UniProt P01116+P62937, Q61H); experiment: Ras-Raf disruption/FRET/MOA assay, KRAS Q61H; assay type: biochemical
How it was run: as §1

NCI-H358 (K-Ras G12C) = experiment: CellTiter-Glo cell viability assay, NCI-H358; assay type: cell-based, human; conditions: Homo sapiens, NCI-H358, 120 h, 5-day treatment; read-out: H358 Cell Viability assay data (K-Ras G12C, IC50)
How it was run: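 Five-day compound treatment of NCI-H358 cells, then CellTiter-Glo luminescence, percent of DMSO, four-parameter logistic fit.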

[6] = molecular target: KRAS G12V binding to BRAF RBD (Homo sapiens (Human), UniProt P01116+P62937, G12V); experiment: Ras-Raf disruption/FRET/MOA assay, KRAS G12V; assay type: biochemical; conditions: read-out: KRAS G12V FRET IC50
Description: as §2, §3, §4

[7] = molecular target: NRAS Q61K binding to BRAF RBD (Homo sapiens (Human), UniProt P01111+P62937, Q61K); experiment: Ras-Raf disruption/FRET/MOA assay, NRAS Q61K; assay type: biochemical
How it was run: as §1

[8] = molecular target: KRAS G13D binding to BRAF RBD (Homo sapiens (Human), UniProt P01116+P62937, G13D); experiment: Ras-Raf disruption/FRET/MOA assay, KRAS G13D; assay type: biochemical
How it was run: (§5)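 First, test compounds in a 10-point 3-fold series (30 μM final top) were incubated for 3 hours at 25° C with nucleotide-loaded Ras, cyclophilin A and a BRAF RBD construct. Next, Eu anti-His and allophycocyanin anti-GST detection reagents were added for 1.5 hours. Finally, IC50s were derived from loss of TR-FRET signal against DMSO.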

[9] = molecular target: KRAS WT binding to BRAF RBD (Homo sapiens (Human), UniProt P01116+P62937); experiment: Ras-Raf disruption/FRET/MOA assay, KRAS WT; assay type: biochemical
Description: Disruption of B-Raf Ras-binding Domain (BRAF^RBD) Interaction with K-Ras by Compounds of the Invention (also called a FRET assay or an MOA assay)
as §2, §3
as §4, with “In assay buffer containing 25 mM HEPES pH 7.3, 0.002% Tween20, 0.1% BSA, 100 mM NaCl and 5 mM MgCl2, tagless Cyclophilin A, His6-K-Ras-GMPPNP, and GST-BRAF^RBD were combined in a 384-well assay plate at final concentrations of 25 μM, 12.5 nM and 50 nM, respectively. Compound was” for “Compound was”

[10] = molecular target: NRAS Q61R binding to BRAF RBD (Homo sapiens (Human), UniProt P01111+P62937, Q61R); experiment: Ras-Raf disruption/FRET/MOA assay, NRAS Q61R; assay type: biochemical
How it was run: as §1

[11] = molecular target: NRAS G12C binding to BRAF RBD (Homo sapiens (Human), UniProt P01111+P62937, G12C); experiment: Ras-Raf disruption/FRET/MOA assay, NRAS G12C; assay type: biochemical
How it was run: as §5

NRAS Q61R = NRAS Q61R (Homo sapiens (Human), UniProt P01111+P62937, Q61R); experiment: Ras-Raf disruption/FRET/MOA assay, NRAS Q61R; assay type: biochemical; conditions: read-out: NRAS Q61R FRET data IC50
Description: (§6) Disruption of B-Raf Ras-Binding Domain (BRAF^RBD) Interaction with K-Ras by Compounds of the Invention (Also Called a FRET Assay or an MOA Assay)
(§7) Note—The following protocol describes a procedure for monitoring disruption of K-Ras G12C (GMP-PNP) binding to BRAF^RBD by a compound of the invention. This protocol may also be executed substituting other Ras proteins or nucleotides, such as K-Ras G12D and K-Ras G13D.
as §3
as §4, with “In assay buffer containing 25 mM HEPES pH 7.3, 0.002% Tween20, 0.1% BSA, 100 mM NaCl and 5 mM MgCl2, tagless Cyclophilin A, His6-K-Ras-GMPPNP, and GST-BRAF^RBD were combined in a 384-well assay plate at final concentrations of 25 μM, 12.5 nM, and 50 nM, respectively. Compound was” for “Compound was”, “mixture of anti-His Eu—W1024 and” for “mixture of Anti-His Eu—W1024 and”

NRAS WT = NRAS WT (Homo sapiens (Human), UniProt P01111+P62937); experiment: Ras-Raf disruption/FRET/MOA assay, NRAS WT; assay type: biochemical; conditions: read-out: NRAS WT FRET IC50
Description: as §6, §7, §3
as §4, with “In assay buffer containing 25 mM HEPES pH 7.3, 0.002% Tween20, 0.1% BSA, 100 mM NaCl and 5 mM MgCl2, tagless Cyclophilin A, His6-K-Ras-GMPPNP, and GST-BRAF^RBD were combined in a 384-well assay plate at final concentrations of 25 μM, 12.5 nM, and 50 nM, respectively. Compound was” for “Compound was”, “mixture of anti-His Eu—W1024 and” for “mixture of Anti-His Eu—W1024 and”

NRAS Q61K = NRAS Q61K (Homo sapiens (Human), UniProt P01111+P62937, Q61K); experiment: Ras-Raf disruption/FRET/MOA assay, NRAS Q61K; assay type: biochemical; conditions: read-out: NRAS Q61K FRET data IC50
Description: as §6, §7, §3
as §4, with “In assay buffer containing 25 mM HEPES pH 7.3, 0.002% Tween20, 0.1% BSA, 100 mM NaCl and 5 mM MgCl2, tagless Cyclophilin A, His6-K-Ras-GMPPNP, and GST-BRAF^RBD were combined in a 384-well assay plate at final concentrations of 25 μM, 12.5 nM, and 50 nM, respectively. Compound was” for “Compound was”, “mixture of anti-His Eu—W1024 and” for “mixture of Anti-His Eu—W1024 and”

Chain of K-Ras G12C(GMP-PNP) binding to BRAF RBD (P01116 other isoform, or with tags, fused parts or gaps G12C): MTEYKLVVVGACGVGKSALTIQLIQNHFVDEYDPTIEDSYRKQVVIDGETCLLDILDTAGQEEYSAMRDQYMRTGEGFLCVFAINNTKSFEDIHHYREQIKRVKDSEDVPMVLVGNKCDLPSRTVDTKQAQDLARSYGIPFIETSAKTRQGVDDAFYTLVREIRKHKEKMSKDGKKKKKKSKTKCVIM
Chain of K-Ras G12C(GMP-PNP) binding to BRAF RBD (P62937 whole entry): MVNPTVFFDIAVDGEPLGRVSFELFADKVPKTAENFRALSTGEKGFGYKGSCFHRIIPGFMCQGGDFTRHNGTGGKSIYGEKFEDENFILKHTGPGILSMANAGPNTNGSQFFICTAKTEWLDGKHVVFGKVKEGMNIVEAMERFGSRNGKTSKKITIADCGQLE
Chain of KRAS G13D binding to BRAF RBD (P01116 other isoform, or with tags, fused parts or gaps G13D): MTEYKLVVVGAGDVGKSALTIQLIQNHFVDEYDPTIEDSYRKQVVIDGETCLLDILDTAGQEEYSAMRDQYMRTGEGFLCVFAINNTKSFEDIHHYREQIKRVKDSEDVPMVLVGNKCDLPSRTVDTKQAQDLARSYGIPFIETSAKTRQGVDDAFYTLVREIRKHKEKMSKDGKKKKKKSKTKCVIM
Chain of KRAS G13D binding to BRAF RBD (P62937 whole entry): as the sequence (P62937 whole entry) above
Chain of NRAS Q61R (P01111 whole entry Q61R, the tested form may be a part): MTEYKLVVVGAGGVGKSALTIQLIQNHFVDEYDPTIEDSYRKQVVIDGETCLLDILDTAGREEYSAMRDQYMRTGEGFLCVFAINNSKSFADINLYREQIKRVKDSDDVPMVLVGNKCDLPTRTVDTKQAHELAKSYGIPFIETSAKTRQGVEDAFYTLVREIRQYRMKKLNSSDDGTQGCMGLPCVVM
Chain of NRAS Q61R (P62937 whole entry, the tested form may be a part): as the sequence (P62937 whole entry) above
Chain of NRAS Q61R binding to BRAF RBD (P01111 whole entry Q61R): as the sequence (P01111 whole entry Q61R, the tested form may be a part) above
Chain of NRAS Q61R binding to BRAF RBD (P62937 whole entry): as the sequence (P62937 whole entry) above
Chain of KRAS Q61H binding to BRAF RBD (P01116 other isoform, or with tags, fused parts or gaps Q61H): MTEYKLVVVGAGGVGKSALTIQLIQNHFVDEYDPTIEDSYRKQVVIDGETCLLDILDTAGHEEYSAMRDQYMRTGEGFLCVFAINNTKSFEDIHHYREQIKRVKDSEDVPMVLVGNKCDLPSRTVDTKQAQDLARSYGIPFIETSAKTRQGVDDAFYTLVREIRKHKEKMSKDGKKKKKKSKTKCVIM
Chain of KRAS Q61H binding to BRAF RBD (P62937 whole entry): as the sequence (P62937 whole entry) above
Chain of KRAS G12V binding to BRAF RBD (P01116 other isoform, or with tags, fused parts or gaps G12V): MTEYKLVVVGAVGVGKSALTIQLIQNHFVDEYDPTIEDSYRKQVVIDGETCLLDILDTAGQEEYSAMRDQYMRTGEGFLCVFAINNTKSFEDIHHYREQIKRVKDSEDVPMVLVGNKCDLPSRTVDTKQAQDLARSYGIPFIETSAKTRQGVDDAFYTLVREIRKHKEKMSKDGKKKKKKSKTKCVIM
Chain of KRAS G12V binding to BRAF RBD (P62937 whole entry): as the sequence (P62937 whole entry) above
Chain of KRAS WT binding to BRAF RBD (P01116 other isoform, or with tags, fused parts or gaps): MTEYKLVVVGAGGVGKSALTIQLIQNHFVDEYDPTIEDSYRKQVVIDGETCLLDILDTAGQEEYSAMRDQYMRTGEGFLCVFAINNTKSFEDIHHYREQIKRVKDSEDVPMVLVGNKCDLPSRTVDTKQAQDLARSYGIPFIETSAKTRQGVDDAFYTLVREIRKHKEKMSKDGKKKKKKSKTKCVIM
Chain of KRAS WT binding to BRAF RBD (P62937 whole entry, the tested form may be a part): as the sequence (P62937 whole entry) above
Chain of NRAS WT binding to BRAF RBD (P01111 whole entry): as the sequence (P01111 whole entry Q61R, the tested form may be a part) above, with R61Q counted along it
Chain of NRAS WT binding to BRAF RBD (P62937 whole entry): as the sequence (P62937 whole entry) above
Chain of NRAS WT (P01111 whole entry): as the sequence (P01111 whole entry Q61R, the tested form may be a part) above, with R61Q counted along it
Chain of NRAS WT (P62937 whole entry): as the sequence (P62937 whole entry) above
Chain of NRAS G12C binding to BRAF RBD (P01111 whole entry G12C): as the sequence (P01111 whole entry Q61R, the tested form may be a part) above, with G12C, R61Q counted along it
Chain of NRAS G12C binding to BRAF RBD (P62937 whole entry): as the sequence (P62937 whole entry) above
Chain of NRAS Q61K (P01111 whole entry Q61K): as the sequence (P01111 whole entry Q61R, the tested form may be a part) above, with R61K counted along it
Chain of NRAS Q61K (P62937 whole entry): as the sequence (P62937 whole entry) above
Chain of NRAS Q61K binding to BRAF RBD (P01111 whole entry Q61K): as the sequence (P01111 whole entry Q61R, the tested form may be a part) above, with R61K counted along it
Chain of NRAS Q61K binding to BRAF RBD (P62937 whole entry): as the sequence (P62937 whole entry) above
Chain of KRAS G12S binding to BRAF RBD (P01116 other isoform, or with tags, fused parts or gaps G12S): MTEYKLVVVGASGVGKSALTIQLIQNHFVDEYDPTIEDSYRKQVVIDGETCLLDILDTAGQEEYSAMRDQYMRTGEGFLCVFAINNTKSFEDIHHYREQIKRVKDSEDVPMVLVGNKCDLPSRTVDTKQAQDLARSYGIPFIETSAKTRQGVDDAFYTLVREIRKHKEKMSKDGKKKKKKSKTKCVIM
Chain of KRAS G12S binding to BRAF RBD (P62937 whole entry): as the sequence (P62937 whole entry) above

| Structure (SMILES) | IC50 [1] | IC50 [2] | IC50 [3] | EC50 [4] | IC50 [5] | IC50 (NCI-H358 (K-Ras G12C)) | IC50 [6] | IC50 [7] | IC50 [8] | IC50 [9] | IC50 [10] | IC50 [11] | IC50 (NRAS Q61R) | IC50 (NRAS WT) | IC50 (NRAS Q61K) |
| --- | --- | --- | --- | --- | --- | --- | --- | --- | --- | --- | --- | --- | --- | --- | --- |
| C=CC(=O)N(C)CC1CCN(C(=O)N(C)[C@H](C(=O)N[C@H]2Cc3nc(cs3)-c3ccc4c(c3)c(c(-c3cccnc3[C@H](C)OC)n4CC)CC(C)(C)COC(=O)[C@@H]3CCCN(N3)C2=O)C(C)C)CC1 (atropisomer, axis not shown) [Compound A629] | 10 to 100 nM | 10 to 100 nM | 10 to 100 nM | < 5 µM | 10 to 100 nM | < 10 nM | 10 to 100 nM | 10 to 100 nM | 100 to 1000 nM | 10 to 100 nM | 10 to 100 nM | 10 to 100 nM | – | – | – |
| CCn1c(-c2cccnc2[C@H](C)OC)c2c3cc(ccc31)-c1cc(O)cc(c1)C[C@H](NC(=O)[C@H](C(C)C)N(C)C(=O)[C@H]1CCCN(C(=O)[C@@H]3CN3)C1)C(=O)N1CCC[C@H](N1)C(=O)OCC(C)(C)C2 (atropisomer, axis not shown) [Example 238] | – | – | – | – | – | – | – | – | – | – | – | – | 100 to 1000 nM | 10 to 100 nM | 100 to 1000 nM |
